Measurements published in ChEMBL document CHEMBL1201862, “PubChem BioAssay data set” (2004).
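1) Cells in 96-well plates. 2) Compound, 48 h, 5 concentrations. 3) Linear interpolation between surrounding doses. 4) Unreached endpoint = highest concentration. GI50 = concentration required for 50% inhibition of growth.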 Calls of active or inactive are those of the source. No stated cut-off is given here; in the data, active = GI50 up to about 1.1 µM and inactive = higher.

Assays:
Assay in all cases: NCI-60 cell line screen, 48 h
[1] = test system: HOP-92
[2] = test system: SR
[3] = test system: COLO 205
[4] = test system: SK-MEL-28
[5] = test system: HCT-116
[6] = test system: MOLT-4
[7] = test system: PC-3
[8] = test system: NCI/ADR-RES
[9] = test system: OVCAR-5
[10] = test system: LOX IMVI
[11] = test system: BT-549
[12] = test system: NCI-H460
[13] = test system: OVCAR-3
[14] = test system: DU-145
[15] = test system: HT-29
[16] = test system: T47D
[17] = test system: EKVX
[18] = test system: SF-295
[19] = test system: 786-0
[20] = test system: SK-MEL-5
[21] = test system: NCI-H23
[22] = test system: HCC 2998
[23] = test system: NCI-H226
[24] = test system: HL-60
[25] = test system: MDA-N
[26] = test system: HOP-62
[27] = test system: UACC-257
[28] = test system: SW-620
[29] = test system: A549
[30] = test system: MCF7
[31] = test system: IGROV-1
[32] = test system: SF-268
[33] = test system: KM12
[34] = test system: OVCAR-8
[35] = test system: RXF 393
[36] = test system: A498
[37] = test system: UACC-62
[38] = test system: Malme-3M
[39] = test system: Hs-578T
[40] = test system: U-251
[41] = test system: UO-31
[42] = test system: NCI-H522
[43] = test system: CAKI-1
[44] = test system: K562
[45] = test system: SF-539
[46] = test system: RPMI-8226
[47] = test system: CCRF-CEM
[48] = test system: MDA-MB-231
[49] = test system: ACHN
[50] = test system: SK-OV-3
[51] = test system: HCT-15
[52] = test system: MDA-MB-435
[53] = test system: TK-10
[54] = test system: SN12C
[55] = test system: M14
[56] = test system: OVCAR-4
[57] = test system: SNB-19
[58] = test system: SK-MEL-2
[59] = test system: SNB-75

COc1ccc(C2=Nn3c(nc4sc(-c5ccccc5)cc4c3=O)SC2)cc1
GI50 [1]: > 100 µM (inactive)
GI50 [2]: > 100 µM (inactive)
GI50 [3]: > 100 µM (inactive)
GI50 [4]: > 100 µM (inactive)
GI50 [5]: 92.3 µM (inactive)
GI50 [6]: > 100 µM (inactive)
GI50 [7]: > 100 µM (inactive)
GI50 [8]: > 100 µM (inactive)
GI50 [9]: > 100 µM (inactive)
GI50 [10]: > 100 µM (inactive)
GI50 [11]: > 100 µM (inactive)
GI50 [12]: 48.4 µM (inactive)
GI50 [13]: > 100 µM (inactive)
GI50 [14]: > 100 µM (inactive)
GI50 [15]: > 100 µM (inactive)
GI50 [16]: > 100 µM (inactive)
GI50 [17]: > 100 µM (inactive)
GI50 [18]: > 100 µM (inactive)
GI50 [19]: 36.9 µM (inactive)
GI50 [20]: > 100 µM (inactive)
GI50 [21]: > 100 µM (inactive)
GI50 [22]: > 100 µM (inactive)
GI50 [23]: > 100 µM (inactive)
GI50 [24]: > 100 µM (inactive)
GI50 [25]: 81.8 µM (inactive)
GI50 [26]: 54.8 µM (inactive)
GI50 [27]: > 100 µM (inactive)
GI50 [28]: 37.3 µM (inactive)
GI50 [29]: > 100 µM (inactive)
GI50 [30]: > 100 µM (inactive)
GI50 [31]: > 100 µM (inactive)
GI50 [32]: > 100 µM (inactive)
GI50 [33]: 81.1 µM (inactive)
GI50 [34]: > 100 µM (inactive)
GI50 [35]: > 10 µM (inactive)
GI50 [36]: > 100 µM (inactive)
GI50 [37]: > 100 µM (inactive)
GI50 [38]: > 100 µM (inactive)
GI50 [39]: 34.4 µM (inactive)
GI50 [40]: > 100 µM (inactive)
GI50 [41]: > 100 µM (inactive)
GI50 [42]: > 100 µM (inactive)
GI50 [43]: > 100 µM (inactive)
GI50 [44]: > 10 µM (inactive)
GI50 [45]: > 100 µM (inactive)
GI50 [46]: > 100 µM (inactive)
GI50 [47]: > 100 µM (inactive)
GI50 [48]: > 100 µM (inactive)
GI50 [49]: 7.35 µM (inactive)
GI50 [50]: > 100 µM (inactive)
GI50 [51]: > 100 µM
GI50 [52]: > 100 µM (inactive)
GI50 [53]: > 100 µM (inactive)
GI50 [54]: > 100 µM (inactive)

O=c1c2ccccc2[se]n1-c1cccnc1
GI50 [1]: 15.9 µM (inactive)
GI50 [2]: 34.7 µM (inactive)
GI50 [3]: 20 µM (inactive)
GI50 [4]: 24.7 µM (inactive)
GI50 [5]: 30.5 µM (inactive)
GI50 [6]: 31.3 µM (inactive)
GI50 [7]: 22.3 µM (inactive)
GI50 [55]: 30.7 µM (inactive)
GI50 [8]: 33.5 µM (inactive)
GI50 [9]: 46.2 µM (inactive)
GI50 [56]: 36.2 µM (inactive)
GI50 [10]: 24.5 µM (inactive)
GI50 [11]: 31.3 µM (inactive)
GI50 [12]: 53.6 µM (inactive)
GI50 [13]: 29.1 µM (inactive)
GI50 [14]: 18.2 µM (inactive)
GI50 [15]: 43.8 µM (inactive)
GI50 [16]: 21.7 µM (inactive)
GI50 [17]: 33.4 µM (inactive)
GI50 [18]: 31.9 µM (inactive)
GI50 [19]: 31.4 µM (inactive)
GI50 [20]: 12.9 µM (inactive)
GI50 [21]: 21.4 µM (inactive)
GI50 [22]: 11.4 µM (inactive)
GI50 [23]: 28.4 µM (inactive)
GI50 [24]: 30.1 µM (inactive)
GI50 [25]: 22.6 µM (inactive)
GI50 [26]: 24.9 µM (inactive)
GI50 [57]: 49.4 µM (inactive)
GI50 [27]: 23.4 µM (inactive)
GI50 [28]: 29 µM (inactive)
GI50 [29]: 40.6 µM (inactive)
GI50 [58]: 19.3 µM (inactive)
GI50 [30]: 29.4 µM (inactive)
GI50 [31]: 19.8 µM (inactive)
GI50 [32]: 27 µM (inactive)
GI50 [33]: 79.3 µM (inactive)
GI50 [34]: 24.9 µM (inactive)
GI50 [35]: 29.2 µM (inactive)
GI50 [36]: 24.7 µM (inactive)
GI50 [37]: 13 µM (inactive)
GI50 [38]: 21.7 µM (inactive)
GI50 [39]: 20.1 µM (inactive)
GI50 [40]: 26.7 µM (inactive)
GI50 [41]: 35.2 µM (inactive)
GI50 [59]: 18.1 µM (inactive)
GI50 [42]: 20.7 µM (inactive)
GI50 [43]: 42.3 µM (inactive)
GI50 [44]: 40.6 µM (inactive)
GI50 [45]: 21.9 µM (inactive)
GI50 [46]: 34.5 µM (inactive)
GI50 [48]: 25.1 µM (inactive)
GI50 [49]: 28.1 µM (inactive)
GI50 [50]: > 100 µM (inactive)
GI50 [51]: 23.6 µM
GI50 [52]: 22.2 µM (inactive)
GI50 [53]: 24.2 µM (inactive)
GI50 [54]: 29.6 µM (inactive)

CC(C)(C)OC(=O)NC(Cc1ccc(OCc2ccccc2)cn1)C(=O)N1CCSCC1 (centres undefined)
GI50 [1]: 47.4 µM (inactive)
GI50 [2]: 27 µM (inactive)
GI50 [3]: 18.6 µM (inactive)
GI50 [4]: 78.7 µM (inactive)
GI50 [5]: 48.6 µM (inactive)
GI50 [6]: 22.9 µM (inactive)
GI50 [7]: 31.4 µM (inactive)
GI50 [55]: 54.8 µM (inactive)
GI50 [8]: 27.7 µM (inactive)
GI50 [9]: 93.1 µM (inactive)
GI50 [10]: 28.3 µM (inactive)
GI50 [11]: 27.9 µM (inactive)
GI50 [12]: 38 µM (inactive)
GI50 [13]: 62.2 µM (inactive)
GI50 [14]: 51.9 µM (inactive)
GI50 [15]: 32.7 µM (inactive)
GI50 [16]: 20.8 µM (inactive)
GI50 [17]: 41.6 µM (inactive)
GI50 [18]: 37.2 µM (inactive)
GI50 [19]: 57.9 µM (inactive)
GI50 [20]: 16.3 µM (inactive)
GI50 [21]: 28.6 µM (inactive)
GI50 [22]: 57.8 µM (inactive)
GI50 [24]: 16.4 µM (inactive)
GI50 [25]: 40.8 µM (inactive)
GI50 [26]: > 100 µM (inactive)
GI50 [57]: > 100 µM (inactive)
GI50 [27]: 26.4 µM (inactive)
GI50 [28]: 81.7 µM (inactive)
GI50 [29]: 56.4 µM (inactive)
GI50 [58]: 38.7 µM (inactive)
GI50 [30]: 38.3 µM (inactive)
GI50 [31]: 75.9 µM (inactive)
GI50 [32]: 65.3 µM (inactive)
GI50 [33]: 36.4 µM (inactive)
GI50 [34]: 40.1 µM (inactive)
GI50 [35]: 33.3 µM (inactive)
GI50 [36]: 45.4 µM (inactive)
GI50 [37]: 52.5 µM (inactive)
GI50 [38]: 46.5 µM (inactive)
GI50 [39]: 77.3 µM (inactive)
GI50 [40]: 74.3 µM (inactive)
GI50 [41]: 50.6 µM (inactive)
GI50 [59]: 24 µM (inactive)
GI50 [42]: 32.9 µM (inactive)
GI50 [43]: 73.3 µM (inactive)
GI50 [44]: 31.7 µM (inactive)
GI50 [45]: 49 µM (inactive)
GI50 [46]: 21.7 µM (inactive)
GI50 [47]: 29.9 µM (inactive)
GI50 [48]: > 100 µM (inactive)
GI50 [49]: 57.3 µM (inactive)
GI50 [50]: 86.3 µM (inactive)
GI50 [51]: 46.7 µM
GI50 [52]: 28.6 µM (inactive)
GI50 [53]: 47.3 µM (inactive)
GI50 [54]: 44.6 µM (inactive)
